From patent US4260682A, “High sensitivity assays for angiotensin converting enzyme” (priority 1979, dated 1981) come the findings set out here.

Peptide text beside a SMILES is read from it. * marks the point of attachment. Bz = O=C(c1ccccc1)*

The target in this assay is T1, Guinea pig serum ACE (Cavia porcellus, UniProt H0UWL7).
T1 sequence (H0UWL7 33-1234): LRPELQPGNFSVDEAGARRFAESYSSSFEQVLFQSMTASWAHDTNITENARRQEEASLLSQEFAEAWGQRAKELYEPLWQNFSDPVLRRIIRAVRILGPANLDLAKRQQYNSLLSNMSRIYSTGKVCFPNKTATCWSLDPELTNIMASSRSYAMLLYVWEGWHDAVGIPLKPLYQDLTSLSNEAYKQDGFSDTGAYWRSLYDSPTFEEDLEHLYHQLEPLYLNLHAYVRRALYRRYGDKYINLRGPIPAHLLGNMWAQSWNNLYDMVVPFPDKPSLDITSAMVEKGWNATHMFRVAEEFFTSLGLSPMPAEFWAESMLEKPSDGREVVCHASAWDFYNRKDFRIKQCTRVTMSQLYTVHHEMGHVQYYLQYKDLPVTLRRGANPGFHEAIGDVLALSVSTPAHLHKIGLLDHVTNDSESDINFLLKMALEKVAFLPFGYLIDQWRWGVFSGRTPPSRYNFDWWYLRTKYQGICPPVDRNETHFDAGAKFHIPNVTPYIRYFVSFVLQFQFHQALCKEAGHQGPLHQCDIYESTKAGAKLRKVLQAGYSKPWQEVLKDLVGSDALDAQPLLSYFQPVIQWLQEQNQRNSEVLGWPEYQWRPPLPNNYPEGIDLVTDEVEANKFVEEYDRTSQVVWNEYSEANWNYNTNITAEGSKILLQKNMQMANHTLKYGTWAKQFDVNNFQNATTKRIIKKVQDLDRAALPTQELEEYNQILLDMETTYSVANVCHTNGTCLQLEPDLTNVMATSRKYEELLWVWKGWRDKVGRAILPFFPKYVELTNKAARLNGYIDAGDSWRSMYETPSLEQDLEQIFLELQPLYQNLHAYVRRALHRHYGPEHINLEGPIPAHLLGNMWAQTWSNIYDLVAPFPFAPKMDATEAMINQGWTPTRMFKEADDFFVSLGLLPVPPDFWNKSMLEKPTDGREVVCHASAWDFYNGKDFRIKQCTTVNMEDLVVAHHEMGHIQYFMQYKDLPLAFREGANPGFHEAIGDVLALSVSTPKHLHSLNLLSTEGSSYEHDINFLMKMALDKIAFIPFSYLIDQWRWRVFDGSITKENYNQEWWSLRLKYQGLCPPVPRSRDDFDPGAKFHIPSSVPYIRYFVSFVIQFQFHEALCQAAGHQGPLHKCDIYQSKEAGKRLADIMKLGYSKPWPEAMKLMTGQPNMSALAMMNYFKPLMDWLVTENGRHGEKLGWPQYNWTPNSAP
Put plainly: Kinetics of (sulfate-stimulated) HipHisLeu hydrolysis. It counts as biochemical. Particulars: for 1/V / V (reaction velocity): 0.1 M NaCl; for V (reaction velocity): 0.75 M Na2 SO4, pH 8.0, 37° C. Here is the method:
Kinetics of Sulfate-Stimulated HipHisLeu Hydrolysis
In each assay, 50 μl of Guinea pig serum diluted 1-20 (v/v) in the reaction buffer was mixed with 50 μl of buffer containing sufficient ^3 H-HipHisLeu to provide approximately 100,000 cpm total, together with sufficient unlabeled HipHisLeu to produce the desired substrate concentrations, as indicated in Table 2. […] The reaction mixture was then extracted with 1 ml ethyl acetate. 500 μl of the ethyl acetate fraction was sampled and counted in a scintillation counter.

For orientation: Vmax means the top rate of the reaction or transport when substrate is in excess. As to `CC(C)C[C@H](NC(=O)[C@H](Cc1c[nH]cn1)NC(=O)CNC(=O)c1ccccc1)C(=O)O` [HipHisLeu] (Bz-Gly-His-Leu-OH), for the setting “0.05 M Hepes, pH 8.0, 0.1 M NaCl, 0.75 M Na2 SO4, serum diluted 1-20”, the Vmax was 5.59 nmol/min/mL. Under “0.75 M Na2 SO4 in reaction mixture containing 0.1 M NaCl”, the “reduction of Km” value is “about 15 fold”. Moreover, the 1/V came out at 3.33 nmole^-1 · min .multi (HipHisLeu 0.01 mM, 0.75 M Na2 SO4); 1.92 nmole^-1 · min .multi (HipHisLeu 0.02 mM, 0.75 M Na2 SO4); 1.35 nmole^-1 · min .multi (HipHisLeu 0.03 mM, 0.75 M Na2 SO4); 0.78 nmole^-1 · min .multi (HipHisLeu 0.04 mM, 0.75 M Na2 SO4); 0.88 nmole^-1 · min .multi (HipHisLeu 0.05 mM, 0.75 M Na2 SO4); 0.78 nmole^-1 · min .multi (HipHisLeu 0.06 mM, 0.75 M Na2 SO4). For the same molecule, the 1/V reads like this: (HipHisLeu 0.07 mM, 0.75 M Na2 SO4) 0.47 nmole^-1 · min .multi; (HipHisLeu 0.08 mM, 0.75 M Na2 SO4) 0.57 nmole^-1 · min .multi. Moreover, the “V (reaction velocity)” value turned out to be 0.30 nmol/min/mL (HipHisLeu 0.01 mM); 0.52 nmol/min/mL (HipHisLeu 0.02 mM); 0.74 nmol/min/mL (HipHisLeu 0.03 mM); 1.28 nmol/min/mL (HipHisLeu 0.04 mM); 1.14 nmol/min/mL (HipHisLeu 0.05 mM); 1.28 nmol/min/mL (HipHisLeu 0.06 mM). In addition, the “V (reaction velocity)” value runs as follows: (HipHisLeu 0.07 mM) 2.14 nmol/min/mL; (HipHisLeu 0.08 mM) 1.76 nmol/min/mL. The “decrease in Km” value (sulfate ion 0.75-1.1 M vs. without) is on record as 14 fold.
